Data published in patent publication US20050106153A1, “Combined physical and immunotherapy for cancer” (WOUND HEALING OF OKLAHOMA, priority 1995, published 2005).

Test system: DMBA-4 metastatic transplantable rat mammary tumor
Test: Survival of rats with tumor transplant after laser/sensitizer assisted immunotherapy
Type: in vivo, Wistar Furth female rats
Excerpt: A diode laser was used in this study. The Industrial Semiconductor Laser ISL50F (McDonnell Douglas Aerospace, St. Louis, Mo.), employs a diode array that is electrically powered by a diode driver. The laser emits radiation at wavelength of 808±10 nm, either in pulsed or in continuous mode. Its maximum near infrared power in the available configuration output is 35 watts. The laser is operated with standard electric power (110/120 VAC). A microprocessor monitors and adjusts the laser operating parameters. Laser energy can be delivered through optical fibers of various sizes. A red laser diode emits 670 nm light at 0.9 mW as the aiming beam. The continuous wave mode was employed in this experiment.
In the experiment, different power and duration of laser irradiation, ranging from 3 minutes at 5 watts to 5 minutes at 15 watts, were used. The output power was measured before, during and after the procedure using a Joule/Watt meter (Ophir Optics, Israel). Two types of fiber optics were used: 600 μm and 1200 μm in diameter.
Wistar Furth female rats, age 6 to 7 weeks and weighing 100 to 125 grams, were chosen for the study. The model is a metastatic transplantable rat mammary tumor. The tumor strain was the DMBA-4. Tumor cells (about 25,000 cells) were transplanted to the rats by injection into the superficial inguinal area between the skin and the muscle layer. Certain selected rats were injected with tumor cells in both left and right inguinal areas for simultaneous tumor growth.
The rats were fed a special food, a high saturated fat diet, to facilitate the growth of the tumor. The tumor usually grew to about 1 to 4 cm^3 within 10 to 14 days of tumor transplantation. In most cases the rat tumors were treated before they grew beyond 5 cm^3.
Before laser treatment, anesthesia was applied (100 μl xylazine and ketamine solution IM) and the hair overlaying the tumor was clipped and shaved. After the treatment, the rats were maintained in separate cages and still fed with the same high fat diet. […]

## CC1(C)C(/C=C/C=C/C=C/C=C2\N(CCCCS(=O)(=O)O)c3ccc4ccccc4c3C2(C)C)=[N+](CCCCS(=O)(=O)[O-])c2ccc3ccccc3c21 [ICG-H2O, indocyanine green]
Second group, treated by laser with ICG-H2O solution, vs control
  effect on survival rate: did not show any improvement on the survival rate
Whole group, laser treated, data up to Jan. 16, 1995
  Survival Days: 29.0 ± 3.5 days
Whole group, laser treated, up to Apr. 1, 1995
  average survival time after the tumor transplant: 29.0 days
